Molecular target: T1, human 11β-HSD2 (Homo sapiens, UniProt P80365)
T1 construct: CHO cells stably transfected with the full-length gene coding for human 11β-HSD2 were used; expressed in transfected cells; host or cells: CHO
T1 sequence (P80365 1-405): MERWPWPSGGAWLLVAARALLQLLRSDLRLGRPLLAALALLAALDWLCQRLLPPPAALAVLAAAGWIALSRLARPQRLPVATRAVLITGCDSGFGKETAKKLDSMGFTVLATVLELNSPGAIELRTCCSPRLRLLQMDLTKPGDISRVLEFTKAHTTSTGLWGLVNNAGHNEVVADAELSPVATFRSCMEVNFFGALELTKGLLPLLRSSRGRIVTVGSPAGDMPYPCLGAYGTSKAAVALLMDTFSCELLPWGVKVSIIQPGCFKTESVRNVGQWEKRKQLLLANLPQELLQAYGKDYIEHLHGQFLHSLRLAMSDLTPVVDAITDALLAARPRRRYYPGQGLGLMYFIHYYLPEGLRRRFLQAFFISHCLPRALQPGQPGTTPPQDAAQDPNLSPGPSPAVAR
Experiment: Cellular in vitro 11β-HSD2 enzyme inhibition assay (CHO cells, TLC/phosphoimager)
Type: cell-based
Conditions: CHO cells stably transfected with human 11β-HSD2; Table 1
Protocol: Cellular In Vitro 11β-HSD2 Enzyme Inhibition Assay
For measurement of inhibition of 11β-HSD2, CHO cells stably transfected with the full-length gene coding for human 11β-HSD2 were used. Assays were carried out in 96-well microplates containing 1×10^5 cells/well. Controls and compounds were plated as above, so that the final DMSO concentration in each well was 1%.
The assay solutions were transferred to glass tubes and 20 μL ethyl acetate added to each tube. Each tube was vortexed thoroughly and the upper layer containing the tritiated steroid transferred to a fresh glass tube. The solvent was evaporated by placing the tubes in a heating block at 65° C. under a stream of Nitrogen gas. 20 μL ethanol was added to each of the dried samples and vortexed briefly. Each sample was applied to a silica TLC plate and the plate dried. The plate was placed vertically in a glass tank containing 92% chloroform:8% ethanol and the solvent allowed to rise up the plate. The plate was dried, placed in an imaging cassette, and overlayed with a tritium imaging plate for 1-2 days. The amount of enzyme inhibition in each sample was determined by measuring the intensity of the substrate and product spots using a phosphoimager.
IC50 values for inhibitors were determined as described for 118-HSD1.

Row | SMILES | IC50 [µM]
1 | O=C(c1cc(-c2ccccn2)sc1Cl)N1CCCCCC1 [EE-12] | > 10
2 | O=C(c1csc(-n2ccnc2)c1)N1CCCC2CCCCC21 (centres unmarked) [FF-06, (5-Imidazol-1-yl-thiophen-3-yl)-(octahydro-quinolin-1-yl)-methanone] | > 10
3 | CC1(C)CC2CC(C)(CN2C(=O)c2csc(-c3ccncc3)c2)C1 (centres unmarked) [GG-01] | > 10

Next, values leading:

Row | IC50 [µM] | SMILES
4 | > 10 | O=C(c1cc(-c2ccccc2)sc1Cl)N1CCCCC1 [AA-30]
5 | > 10 | CC1(C)CC2CC(C)(CN2C(=O)c2cc(-c3ccccc3)sc2Cl)C1 (centres unmarked) [CC-02]
